Experimental data as given in paper PMC11091220, “Metabolism-driven in vitro/in vivo disconnect of an oral ERɑ VHL-PROTAC” (Communications Biology, 2024).
“And” between values parts separate entries of the source, which are not always exact repeats. Identical values can stand only once.

Key:
[1] = tested on: PR expression; assay: ER agonism: PR expression in Ishikawa cells by western blot; format: cell-based
Experimental: Fig. 8 Evidence of ER agonism of AZ’6421 and compound 8 in vitro and in vivo. a 100 nM compound or 10 nM estradiol (E2) were incubated with Ishikawa cells for 48 h and lysates measured for PR expression by western blot. b Normalised rat uterine weight shown as % change from respective vehicle control after 4 days dosing. c Representative H&E stained images taken from sections of uterine horn after 4 days of dosing. d Total plasma exposure of AZ’6421 and its metabolite 8 following dosing of 100 mg/kg BID or 30 mg/kg BID AZ’6421. Plasma samples were taken 4 hr after the 4th dose, at the same time as the uterus was weighed and sectioned for H&E staining.
(§1) Cells were seeded into 12-well tissue culture-treated plates at 0.5 x 10^6 cells/well in phenol red-free RPMI containing 5% (v/v) charcoal-stripped FBS (F6765, Sigma) and left to adhere overnight. In experiments to detect agonism or for SILAC experiments, FBS was double stripped using activated charcoal. Cells were treated with compound or 0.1% DMSO vehicle control for the times indicated prior to being lysed in Pierce RIPA buffer (Thermo Scientific), supplemented with protease and phosphatase inhibitors. Expression levels of proteins were determined by standard western blotting techniques (BioRad 4%-12% Bis-Tris gels). Antibodies were diluted in 5% milk-PBS-Tween and protein levels were detected using Pierce WestDura chemiluminescent reagents followed by visualisation and quantification on a Syngene ChemiGenius Imager. Where blots were quantified, protein levels were normalised to beta-actin or vinculin control and expressed as % of vehicle control.

[2] = tested on: uterus; assay: Immature female rat model, uterine weight and histology; format: in vivo
Excerpt: Some endocrine therapies, such as tamoxifen, have been reported to display weak agonistic activity in the endometrium due to altered cofactor recruitment and subsequent activation of gene transcription. We therefore sought to test whether AZ’6421 was a complete antagonist or could act as a partial agonist, in both in vitro and in vivo models. […] Plasma samples were taken 4 hr after the 4th dose, at the same time as the uterus was weighed and sectioned for H&E staining. To further explore whether AZ’6421 may be acting as an agonist in vivo, morphological changes of the uterine were examined: uterine horns were formalin-fixed paraffin-embedded, stained with haematoxylin and eosin and then transverse sections of uterus examined.

[3] = biological target: T1, ERα (Homo sapiens, UniProt P03372); assay: Western blot analysis of ERα in MCF7 cells (dose response, MG132, VHL ligand and cpd 8 competition); format: cell-based; details: MCF7
T1 construct: endogenous in cells; host or cells: MCF7 (also MCF7 engineered to express Cas9)
T1 sequence (P03372 1-595): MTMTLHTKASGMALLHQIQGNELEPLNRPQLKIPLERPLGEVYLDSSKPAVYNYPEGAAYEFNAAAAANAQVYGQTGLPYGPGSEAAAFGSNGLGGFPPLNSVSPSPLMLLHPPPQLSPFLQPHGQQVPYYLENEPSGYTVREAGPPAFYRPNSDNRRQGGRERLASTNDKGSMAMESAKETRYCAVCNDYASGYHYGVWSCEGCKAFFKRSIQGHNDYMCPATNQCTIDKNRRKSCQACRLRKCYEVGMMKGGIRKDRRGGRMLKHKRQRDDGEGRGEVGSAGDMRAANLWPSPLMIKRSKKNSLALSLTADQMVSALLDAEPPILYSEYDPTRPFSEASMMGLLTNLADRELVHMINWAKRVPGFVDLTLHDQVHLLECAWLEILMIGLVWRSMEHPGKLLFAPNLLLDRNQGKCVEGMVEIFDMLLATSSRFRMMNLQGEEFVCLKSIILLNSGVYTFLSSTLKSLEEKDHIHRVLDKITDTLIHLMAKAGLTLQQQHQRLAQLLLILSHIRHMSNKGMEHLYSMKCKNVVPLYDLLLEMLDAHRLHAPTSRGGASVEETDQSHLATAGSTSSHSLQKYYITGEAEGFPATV
Experimental: Fig. 2 AZ’6421 degrades ERα through a PROTAC mechanism of action. a Immunoblots for ERα and vinculin loading control. MCF7 cells were pre-treated with 10 µM MG132 or DMSO control for 1 h before being exposed to DMSO, AZ’6421, or fulvestrant, at the concentrations indicated, for a further 7 h. A representative immunoblot from two biological replicates is shown. b As in a but cells were pre-treated with 10 µM VHL ligand (Ac-(S,R,S)-AHPC) prior to addition of DMSO, AZ’6421 or fulvestrant. c MCF7 cells expressing BFP-Cas9 were reverse transfected with the crRNA:tracrRNA pool targeting VHL for 72 h prior to treatment with increasing concentrations of AZ’6421 for a further 24 h. Cells were then fixed, stained, and imaged to assess ERα and Cas9 expression. ERα levels in Cas9 positive cells were normalised to unedited cells (0) and ESR1 KO cells (-100). Data points are from three independent experiments, points in bold represent the mean. d Structure of AZ’6421 and the (S)-prolinol epimer, 7. e Concentration-response curves for AZ’6421 and 7. ERα levels in MCF7 cells were assessed using an immunofluorescence endpoint after 24 h exposure to compound. […] Data points are from 5 (AZ'6421) or 2 (Cpd 7) independent experiments with technical duplicates performed for each experiment, bold points represent the mean. All concentration-response curves were plotted using nonlinear regression analysis in GraphPad Prism.
Fig. 6 Assessment of the cause of the in vitro/in vivo disconnect. a CTC174 tumours were disaggregated into single cells, seeded in 6-well plates and dosed with increasing concentrations of AZ’6421 for 24 hours before being lysed. ERα levels were assessed by immunoblotting. ERɑ levels normalised to vinculin and expressed as % DMSO control are shown underneath the immunoblot. b Representative IHC images taken from sections of tumour treated with vehicle control or 100 mg/kg AZ’6421 for 4 days. Sections were stained with an antibody against ERα (Sp1, Ventana). c Schematic of potential sites of metabolism d Free plasma exposure of AZ’6421 and its metabolite 8 following 100 mg/kg dosing of AZ’6421. e Concentration-response curves for AZ’6421 and metabolite 8. ERα levels in MCF7 cells were assessed using an immunofluorescence endpoint after 24 h exposure to compound. […] Points in bold represent the mean. f Effect of metabolite 8 on ERα degradation in CTC174 cells cultured ex vivo. […] MCF7 cells were pre-treated with 10 µM cpd 8 or DMSO control for 1 h before being exposed to DMSO, AZ’6421 or fulvestrant, at the concentrations indicated, for a further 24 h. A representative immunoblot from two biological replicates is shown. TEXT PRINTED IN THE PICTURE: (a) AZ'6421: ERα % of DMSO control: 20.3 (1 nM); ERα % of DMSO control: 12.0 (10 nM); ERα % of DMSO control: 4.1 (30 nM); ERα % of DMSO control: 4.2 (100 nM); ERα % of DMSO control: 3.9 (300 nM); ERα % of DMSO control: 3.6 (1000 nM)
as §1

[4] = biological target: T1, ERα; assay: SILAC pulse-chase and mass spectrometry, ERα turnover in MCF7 cells; format: cell-based; details: 1 µM
Experimental: MCF7 cells were grown for a minimum of 2 passages in SILAC media (Pierce, Thermo Scientific) containing ^13C6^15N4 arginine and ^13C6 lysine. The extent of stable isotope incorporation was determined by mass spectrometry. For the assay, cells were plated at 1.2 x 10^6 cells/well into 6-well TC-treated plates in media containing 5% double charcoal stripped FBS^13,C6^15N4 arginine and ^13C6^15N2 lysine for 24 hours. At time 0, the media containing isotopically heavy arginine and lysine was replaced with media containing unlabelled equivalents plus either AZ’6421, fulvestrant or DMSO control. […] Equal concentrations of timecourse lysates were mixed with an internal standard lysate derived from ^[…] lysine labelled MCF7 cells. ER protein was immunoprecipitated overnight at 4 °C with an ER antibody (Rabbit clone SP1, Thermo Scientific) and immobilised onto a U-bottomed Nunc MaxiSorp plate (Thermo Scientific). Wells were sequentially washed with each of the following; RIPA buffer, PBS and water. Samples were digested by addition of 30 μL well sequencing grade trypsin (Promega) in 50 mM ammonium bicarbonate at 37 °C for a minimum of 16 hours. The resultant peptide samples were acidified and analysed by selected reaction monitoring (SRM) mass spectrometry. Protein half-life was determined using the one-phase exponential decay function in GraphPad PRISM where Y = (Y0 - Plateau)*exp(-K*X) + Plateau.

[5] = biological target: T1, ERα; assay: Hypoxia studies, ERα degradation in MCF7 cells; format: cell-based; details: 100 nM
Experimental: MCF7 cells were seeded into 12-well tissue culture-treated plates at 0.5x10^6 cells/well in phenol red-free RPMI media containing 5% (volume/volume [v/v]) charcoal-stripped FBS (F6765, Sigma) and left to adhere overnight. The hypoxia-treated plates were transferred to a Thermo Heracell 150 Tri-gas Incubator set at 2% O2 and allowed to equilibrate to the lower oxygen level overnight. Cells were treated with compound or 0.1% DMSO vehicle control for 48 hours prior to being lysed in Pierce RIPA buffer (Thermo Scientific), supplemented with protease and phosphatase inhibitors. Lysis was carried out immediately after removal from the Tri-gas incubator to prevent the rapid degradation of HIF1α on re-exposure to the higher oxygen levels. Protein expression was determined by standard western blotting procedures as described above.

| uterine epithelium morphology (H&E) ([2]; immature female rat, 4 days dosing) | effect of MG132 pre-treatment on ERα degradation ([3]; 10 µM MG132 1 h, then compound 7 h) | effect of excess acetylated-(S,R,S)-AHPC pre-treatment on ERα degradation ([3]; 10 µM VHL ligand) | % heavy (ERα heavy peptide) ([4]; Time 0, MCF7) [%] | % heavy (ERα heavy peptide) ([4]; Time 0.5) | % heavy (ERα heavy peptide) ([4]; Time 1) | % heavy (ERα heavy peptide) ([4]; Time 2) | % heavy (ERα heavy peptide) ([4]; Time 4) | % heavy (ERα heavy peptide) ([4]; Time 7) | % heavy (ERα heavy peptide) ([4]; Time 24) | % heavy (ERα heavy peptide) ([4]; Time 48) | ERa levels (% of vehicle control) ([5]; Hypoxic) [%] | ERa levels (% of vehicle control) ([5]; Normoxic) [%] | Compound | PR expression (% vs 10 nM E2) ([1]; 100 nM compound, individual replicates) | PR expression in the Ishikawa endometrial cell line ([1]; 100 nM, 48 h) | Uterine weight normalised to body weight (% vehicle) ([2]; 5 mg/kg, individual animals) |
| --- | --- | --- | --- | --- | --- | --- | --- | --- | --- | --- | --- | --- | --- | --- | --- | --- |
| low columnar uterine epithelium | – | – | – | – | – | – | – | – | – | – | – | – | C[C@@H]1Cc2c([nH]c3ccccc23)[C@@H](c2c(F)cc(/C=C/C(=O)O)cc2F)N1CC(C)(C)F [AZD9496, (E)-3-(3,5-Difluoro-4-((1R,3R)-2-(2-fluoro-2-methylpropyl)-3-methyl-2,3,4,9-tetra hydro-1H-pyrido[3,4-b]indol-1-yl)phenyl)acrylic Acid, reference compound] | 5.08% and 7% | induced PR expression | 178.44% and 156.17% and 157.43% and 195.46% and 128.27% |
| – | attenuated ERα degradation | had no effect | 100.0 | 39.1% and 49.6% and 42.4% | 29.7% and 37.1% and 33.5% | 20.8% and 29.3% and 28.1% | 10.9% and 15.5% and 18.5% | 5.3% and 6.8% and 7.7% | 4.3% and 6.1% | 4.6% and 6.1% and 3.9% | 5.829 | 10.860 | C[C@]12CC[C@@H]3c4ccc(O)cc4C[C@@H](CCCCCCCCC[S+]([O-])CCCC(F)(F)C(F)(F)F)[C@H]3[C@@H]1CC[C@@H]2O (stereo partly shown) [fulvestrant, reference compound] | – | – | – |
